Measurements from ChEMBL document CHEMBL1152085, “Novel 3-deoxy-3-descladinosyl-6-O-methyl erythromycin a analogues. Synthesis and in vitro activity” (1997).
Values after ≈ are worked out from the molar mass of the structure shown.

Assays:
Assay type in all cases: functional
Streptococcus pyogenes [1] = assay: Tested in vitro for minimum inhibitory concentration to produce antibacterial activity against Streptococcus pyogenes EES61 in presence of erythromycin A
Streptococcus pyogenes [2] = assay: Tested in vitro for minimum inhibitory concentration to produce antibacterial activity against Streptococcus pyogenes EES61
Staphylococcus aureus [3] = assay: Tested in vitro for minimum inhibitory concentration to produce antibacterial activity against Staphylococcus aureus CMX 642A
Escherichia coli [4] = assay: Tested in vitro for minimum inhibitory concentration to produce antibacterial activity against Escherichia coli JUHL in presence of erythromycin A
Streptococcus pyogenes [5] = assay: Tested in vitro for minimum inhibitory concentration to produce antibacterial activity against Streptococcus pyogenes PIU 2548
Staphylococcus aureus [6] = assay: Tested in vitro for minimum inhibitory concentration to produce antibacterial activity against Staphylococcus aureus 1775 in presence of erythromycin A
Staphylococcus aureus [7] = assay: Tested in vitro for minimum inhibitory concentration to produce antibacterial activity against Staphylococcus aureus ATCC 6538P
Staphylococcus aureus [8] = assay: Tested in vitro for minimum inhibitory concentration to produce antibacterial activity against Staphylococcus aureus CMX 553 in presence of erythromycin A
Streptococcus pyogenes [9] = assay: Tested in vitro for minimum inhibitory concentration to produce antibacterial activity against Streptococcus pyogenes 930 in presence of erythromycin A
Streptococcus pyogenes [10] = assay: Tested in vitro for minimum inhibitory concentration to produce antibacterial activity against Streptococcus pyogenes PIU 2548 in presence of erythromycin A
Escherichia coli [11] = assay: Tested in vitro for minimum inhibitory concentration to produce antibacterial activity against Escherichia coli SS
Staphylococcus aureus [12] = assay: Tested in vitro for minimum inhibitory concentration to produce antibacterial activity against Staphylococcus aureus A-5278 in presence of erythromycin A
[13] = test system: Staphylococcus epidermidis; assay: Tested in vitro for minimum inhibitory concentration to produce antibacterial activity against Staphylococcus epidermidis 3519 in presence of erythromycin A
Streptococcus pyogenes [14] = assay: Tested in vitro for minimum inhibitory concentration to produce antibacterial activity against Streptococcus pyogenes 930
Streptococcus agalactiae [15] = assay: Tested in vitro for minimum inhibitory concentration to produce antibacterial activity against Streptococcus agalactiae CMX 508 in presence of erythromycin A
Staphylococcus aureus [16] = assay: Tested in vitro for minimum inhibitory concentration to produce antibacterial activity against Staphylococcus aureus ATCC 6538P in presence of erythromycin A
Enterococcus faecium [17] = assay: Tested in vitro for minimum inhibitory concentration to produce antibacterial activity against Enterococcus faecium ATCC 8043
Staphylococcus aureus [18] = assay: Tested in vitro for minimum inhibitory concentration to produce antibacterial activity against Staphylococcus aureus NCTC-10649M
Enterococcus faecium [19] = assay: Tested in vitro for minimum inhibitory concentration to produce antibacterial activity against Enterococcus faecium ATCC 8043 in presence of erythromycin A
Streptococcus agalactiae [20] = assay: Tested in vitro for minimum inhibitory concentration to produce antibacterial activity against Streptococcus agalactiae CMX 508
Streptococcus equinus [21] = assay: Tested in vitro for minimum inhibitory concentration to produce antibacterial activity against Streptococcus bovis A-5169 in presence of erythromycin A
[22] = test system: Staphylococcus epidermidis; assay: Tested in vitro for minimum inhibitory concentration to produce antibacterial activity against Staphylococcus epidermidis 3519
Staphylococcus aureus [23] = assay: Tested in vitro for minimum inhibitory concentration to produce antibacterial activity against Staphylococcus aureus A5177
Staphylococcus aureus [24] = assay: Tested in vitro for minimum inhibitory concentration to produce antibacterial activity against Staphylococcus aureus CMX 642A in presence of erythromycin A
Staphylococcus aureus [25] = assay: Tested in vitro for minimum inhibitory concentration to produce antibacterial activity against Staphylococcus aureus CMX 553
Staphylococcus aureus [26] = assay: Tested in vitro for minimum inhibitory concentration to produce antibacterial activity against Staphylococcus aureus A5177 in presence of erythromycin A
Staphylococcus aureus [27] = assay: Tested in vitro for minimum inhibitory concentration to produce antibacterial activity against Staphylococcus aureus A-5278
Escherichia coli [28] = assay: Tested in vitro for minimum inhibitory concentration to produce antibacterial activity against Escherichia coli JUHL
Staphylococcus aureus [29] = assay: Tested in vitro for minimum inhibitory concentration to produce antibacterial activity against Staphylococcus aureus NCTC-10649M in presence of erythromycin A
Streptococcus equinus [30] = assay: Tested in vitro for minimum inhibitory concentration to produce antibacterial activity against Streptococcus bovis A-5169
Staphylococcus aureus [31] = assay: Tested in vitro for minimum inhibitory concentration to produce antibacterial activity against Staphylococcus aureus 1775
Escherichia coli [32] = assay: Tested in vitro for minimum inhibitory concentration to produce antibacterial activity against Escherichia coli SS in presence of erythromycin A

| Structure (SMILES) | MIC (Streptococcus pyogenes [1]) [mg/L] | MIC (Streptococcus pyogenes [2]) [mg/L] | MIC (Staphylococcus aureus [3]) [mg/L] | MIC (Escherichia coli [4]) [mg/L] | MIC (Streptococcus pyogenes [5]) [mg/L] | MIC (Staphylococcus aureus [6]) [mg/L] | MIC (Staphylococcus aureus [7]) [mg/L] | MIC (Staphylococcus aureus [8]) [mg/L] | MIC (Streptococcus pyogenes [9]) [mg/L] | MIC (Streptococcus pyogenes [10]) [mg/L] | MIC (Escherichia coli [11]) [mg/L] | MIC (Staphylococcus aureus [12]) [mg/L] | MIC [13] [mg/L] | MIC (Streptococcus pyogenes [14]) [mg/L] | MIC (Streptococcus agalactiae [15]) [mg/L] | MIC (Staphylococcus aureus [16]) [mg/L] | MIC (Enterococcus faecium [17]) [mg/L] | MIC (Staphylococcus aureus [18]) [mg/L] | MIC (Enterococcus faecium [19]) [mg/L] | MIC (Streptococcus agalactiae [20]) [mg/L] | further results |
| --- | --- | --- | --- | --- | --- | --- | --- | --- | --- | --- | --- | --- | --- | --- | --- | --- | --- | --- | --- | --- | --- |
| CC[C@H]1OC(=O)[C@H](C)C[C@H](C)[C@@H](O[C@@H]2O[C@H](C)C[C@H](N(C)C)[C@H]2O)[C@](C)(OC)C[C@@H](C)C(=O)[C@H](C)[C@H]2OC(=O)O[C@@]21C | 0.01 | 0.2 (≈ 0.333 µM) | 3.1 (≈ 5.17 µM) | 50 | 0.78 (≈ 1.3 µM) | > 100 | 6.2 (≈ 10.3 µM) | 0.2 | > 100 | 6.2 | 0.78 (≈ 1.3 µM) | > 100 | 0.2 | > 100 | 0.01 | 0.2 | 0.78 (≈ 1.3 µM) | 6.2 (≈ 10.3 µM) | 0.05 | 0.2 (≈ 0.333 µM) | MIC (Streptococcus equinus [21]): 0.05 mg/L; MIC [22]: 6.2 mg/L (≈ 10.3 µM); MIC (Staphylococcus aureus [23]): 3.1 mg/L (≈ 5.17 µM); MIC (Staphylococcus aureus [24]): 0.2 mg/L; MIC (Staphylococcus aureus [25]): 3.1 mg/L (≈ 5.17 µM); MIC (Staphylococcus aureus [26]): 3.1 mg/L; MIC (Staphylococcus aureus [27]): > 100 mg/L; MIC (Escherichia coli [28]): > 100 mg/L; MIC (Staphylococcus aureus [29]): 0.2 mg/L; MIC (Streptococcus equinus [30]): 0.2 mg/L (≈ 0.333 µM); MIC (Staphylococcus aureus [31]): > 100 mg/L; MIC (Escherichia coli [32]): 0.2 mg/L |
| CC[C@H]1OC(=O)[C@H](C)C[C@H](C)[C@@H](O[C@@H]2O[C@H](C)C[C@H](N(C)C)[C@H]2O)[C@](C)(OC)C[C@@H](C)C(=O)/C(C)=C/[C@]1(C)O | 0.01 | 12.5 (≈ 22.5 µM) | > 100 | 50 | > 100 | > 100 | > 100 | 0.39 | 12.5 | 12.5 | > 100 | > 100 | 0.39 | > 100 | 0.02 | 0.39 | > 100 | > 100 | 0.2 | 25 (≈ 45 µM) | MIC (Streptococcus equinus [21]): 0.2 mg/L; MIC [22]: > 100 mg/L; MIC (Staphylococcus aureus [23]): > 100 mg/L; MIC (Staphylococcus aureus [24]): 0.39 mg/L; MIC (Staphylococcus aureus [25]): > 100 mg/L; MIC (Staphylococcus aureus [26]): 3.1 mg/L; MIC (Staphylococcus aureus [27]): > 100 mg/L; MIC (Escherichia coli [28]): > 100 mg/L; MIC (Staphylococcus aureus [29]): 0.39 mg/L; MIC (Streptococcus equinus [30]): > 100 mg/L; MIC (Staphylococcus aureus [31]): > 100 mg/L; MIC (Escherichia coli [32]): 0.78 mg/L |
